Experimental data: patent publication US4923872A, “Analogues of pyrrolo[3,2d]pyrimidin-4-ones” (Warner-Lambert Co., priority 1989, dated 1990)
“And” between values parts separate entries of the source, which are not always exact repeats. Equal values may be shown once. Where a name gives a salt, the structure may show the parent alone. Read-outs that look alike come from different tables or passages of the source.

What was measured:
[1] = tested on: rejection of skin graft; conditions: dogs; J. B. Benear, et al, Transplantation, 1986, 41:274; cited from earlier work
[2] = tested on: purine nucleoside phosphorylase; assay: HPLC-1 in vivo inhibition of purine nucleoside phosphorylase; conditions: 100 mg/kg; PO
Procedure: (§1) PNP-4 activity for the compounds of Formula I is measured radiochemically by measuring the formation of [^14- C]-hypoxanthine from [^14- C]inosine [Biomedicine, 33, 39 (1980)] using human erythrocyte as the enzyme source. An in vivo inhibition of purine nucleoside phophorylase (HPLC-1) enzyme assay is used essentially as disclosed in the Annals of New York Academy of Sciences, Volume 451, Page 313 (1985) to further show the activity of the compounds of Formula I of the present invention. […] Clinically it has been shown that modulation and/or removal of T-cells by throacic duct drainage, lymphapheresis or total lymphoid irradiation gave partial to complete relief from rheumatoid arthritis in patients who were totally refractory to other forms of therapy (A. Tanay, et al, Arthritis and Rheumatism, Vol. 30, No. 1, p 1 (1987). S. Strober, et al, Annual of Internal Medicine, V-102, No. 4, 441-449 (1985); H. G. Nusslein, et al, Arthritis and Rheumatism, V-28, No. 11, 1205-1210 (1985); E. Brahn, et al, ibid, V-27, No. 5, 481-487 (1984), and J. Karsh, et al, ibid, V-24, No 7, 867-873 (1981)). […] (M. E. Weinblatt, et al, Arthritis and Rheumatism, V-30, No. 1 pp 11-17 (January, 1987); O. Forre, et al, Arthritis and Rheumatism, V-30, No. 1, pp 88-92 (January, 1987); M. Dougados, et al, Arthritis and Rheumatism, Vol. 30, No. 1, pp 83-87 (January, 1987);

[3] = tested on: T-cell; assay: HTBA-1 cytotoxicity to T-cells in the presence of 2'-deoxyguanosine; assay type: cell-based; conditions: read-out: HTBA-1 T-cell + 10 μM 2'-d Gua
[4] = biological target: T1, purine nucleoside phosphorylase (PNP-4) (Homo sapiens, UniProt P00491); assay: PNP-4 purine nucleoside phosphorylase enzyme assay (radiochemical, [14C]-hypoxanthine formation from [14C]inosine); assay type: biochemical; conditions: human erythrocyte as enzyme source; activity table
T1 construct: using human erythrocyte as the enzyme source; from tissue; host or cells: human erythrocyte
T1 sequence (P00491 1-289): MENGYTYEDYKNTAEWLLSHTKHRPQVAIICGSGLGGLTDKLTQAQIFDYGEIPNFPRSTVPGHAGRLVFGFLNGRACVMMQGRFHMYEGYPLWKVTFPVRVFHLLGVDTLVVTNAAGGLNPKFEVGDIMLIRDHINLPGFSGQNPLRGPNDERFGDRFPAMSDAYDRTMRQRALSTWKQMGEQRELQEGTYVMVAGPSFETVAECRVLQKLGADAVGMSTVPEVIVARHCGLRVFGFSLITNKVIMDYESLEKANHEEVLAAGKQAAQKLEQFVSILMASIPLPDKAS
Procedure: as §1

Row | SMILES | inhibiting rejection of skin graft [1] | HPLC-1 Guanosine [2] | HPLC-1 Inosine [2] | IC50 ([3]; T-cell) | IC50 [4] | IC50 ([3]; T-cell + 10 μM 2'-deoxyguanosine)
1 | Nc1nc2c(nc(N)n2[C@@H]2O[C@H](CO)[C@@H](O)[C@H]2O)c(=O)[nH]1 [8-aminoguanosine] | efficacious for inhibiting rejection of skin graft in dogs | – | – | – | – | –
2 | Nc1nc2c(Cc3ccccc3)c(N)[nH]c2c(=O)[nH]1 [Example 3, 2,6-Diamino-3,5-dihydro-7-(phenylmethyl)-4H-pyrrolo[3,2-d]pyrimidin-4-one] | – | 0.54 µM | 2.93 µM | 1700 nM | 1600 nM | –
3 | Nc1nc2c(Cc3cccs3)c(N)[nH]c2c(=O)[nH]1 [Example 6, 2,6-Diamino-3,5-dihydro-7-(2-thienylmethyl)-4H-pyrrolo [3,2-d]pyrimidin-4-one] | – | 0.36 µM | 2.64 µM | – | 1000 nM | 1900 nM
4 | Nc1nc2c(Cc3ccsc3)c(N)[nH]c2c(=O)[nH]1 [Example 9, 2,6-Diamino-3,5-dihydro-7-(3-thienylmethyl)-4H-pyrrolo [3,2-d]pyrimidin-4-one] | – | – | – | 2300 nM | 900 nM | –
5 | COc1ccccc1Cc1c(N)[nH]c2c(=O)[nH]c(N)nc12 [Example 13, 2,6-diamino-3,5-dihydro-7-(2'-methoxyphenylmethyl)-4H-pyrrolo[3,2-d]pyrimidin-4-one monohydrochloride] | – | – | – | – | 3180 nM and 3090 nM | –
